The text below walks through data of article PMC9030932, “Development of Dibenzothiazepine Derivatives as Multifunctional Compounds for Neuropathic Pain” (Pharmaceuticals, 2022).

“Also recorded” adds a separate entry of the source. Read-outs that look alike come from different tables or passages of the source. Marks after values point to notes of the source that are not given here. Some results are limits rather than exact numbers.

The target of data set [1] is human dopamine transporter (hDAT) (Homo sapiens, UniProt Q01959). Put plainly: Neurotransmitter transporter uptake assay, HEK-hDAT. The class given is cell-based.
The target of data set [2] is human serotonin transporter (hSERT) (Homo sapiens, UniProt P31645). Put plainly: Neurotransmitter transporter uptake assay, HEK-hSERT. The class given is cell-based.
The target of data set [3] is human norepinephrine transporter (hNET) (Homo sapiens, UniProt P23975). Put plainly: Neurotransmitter transporter uptake assay, HEK-hNET. The class given is cell-based.
Data set [4] deals with T1, human κ-opioid receptor (OPRK1) (Homo sapiens, UniProt P41145).
T1 construct: host or cells: HEK293 (constitutive expression)
Put plainly: Intracellular calcium mobilization (FLIPR Tetra), HEK-hKOR agonism. To be noted: for agonistic activity at the κ-opioid receptor: HEK-hKOR calcium mobilization; for activation at 10 µM: read-out: % Stimulation at 10 μM, OPRK1 Agonism against DynorphinA (370 nM). The class given is cell-based. The procedure:
Intracellular calcium mobilization was measured by using FLIPR Tetra System (Molecular Devices, Sunnyvale, CA, USA) in accordance with manufacturer’s instruction. […] Subsequently, the plate was transferred to the FLIPR tetra system for treating 50 μL of the 5× compounds diluted in loading buffer and reading intracellular calcium mobilization. The final concentration of DMSO was 0.1%. […] A dose response curve was generated with the changes in Relative Fluorescence Units (∆RFU) versus Log10 dose.
Experimental details for Biology
Cell culture. HEK293 cells stably expressing human DA transporter (HEK-hDAT), human NE transporter (HEK-hNET) and human serotonin transporter (HEK-hSERT) were kindly provided by Professor Bryan Roth (University of North Carolina at Chapel Hill). And HEK293 cells constitutively expressing human κ- or μ- opioid receptor (HEK-hKOR_NM000912 or HEK-hMOR_NM000914) were constructed by Professor Ki Duk Park (in Korea Institute of Science […]
Europins DiscoveRx (Fremont, CA, USA). Cells were mainta ined in Dulbecco's modified Eagle's medium (HyClone, Logan, UT, USA) supplemented with 10%(v/v) fetal bovine serum (FBS, HyClone, Logan, UT, USA), penicillin (100 U/mL), and streptomycin (100 μg/mL) in the […]
for HEK-hDAT, HEK-hNET, HEK-hSERT, HEK-hKOR and HEK-hMOR respectively) in a humidified 5% CO2 incubator at 37 °C. In case of both HEK-hKOR and HEK-hMOR, cells were additionally maintained in 0.2 mg/mL hygromycin B, 1 μg/mL puromycin B, 1× non-essential amino acids. The cells were subcultured every 3-4 days. […]

The target in data set [5] is T2, human μ-opioid receptor (OPRM1) (Homo sapiens, UniProt P35372).
T2 construct: host or cells: HEK293 (constitutive expression)
Description: Intracellular calcium mobilization (FLIPR Tetra), HEK-hMOR agonism. The class given is cell-based. To be noted: for agonistic activity at the μ-opioid receptor: compared to DAMGO. In general terms: Calcium assays in cells follow changes in intracellular calcium, usually with a dye or a luminescent sensor.

In another data set the target is T3, hOPRM1 receptor (Homo sapiens, UniProt P35372).
T3 construct: host or cells: CHO-K1
Put plainly: PathHunter CHO-K1 OPRM1 β-arrestin recruitment assay. The class given is cell-based.

Data set [6] relates to spinal-nerve-ligated neuropathic pain rats. Description: Spinal nerve ligation (SNL) neuropathic pain model, von Frey paw withdrawal threshold, intrathecal. The class given is in vivo, rat. Particulars: for maximum possible effect (MPE): highest dose (12: 100 μg; 17: 30 μg); for effect on paw withdrawal threshold (PWT) / allodynia: vs vehicle. The procedure:
Adult male Sprague-Dawley rats weighing 150–180 g each were used. The animals were housed in a room with a constant temperature of 22–23 °C and an alternating 12-h light/dark cycle, with unrestricted access to food and water. Implantation of intrathecal catheters was performed for drug administration under sevoflurane anesthesia, as described previously. Seven days of recovery were allowed after surgery before the use of catheterized rats in the experiments. Spinal nerve-ligated neuropathic pain was induced by tightly ligating the left L5 and L6 spinal nerves, as described previously. Only rats showing allodynia after either spinal nerve ligation (withdrawal threshold < 4 g) were studied. The von Frey test was used to determine the 50% probability paw withdrawal threshold (PWT), using the up and down method, in which a positive response was defined as brisk withdrawal or paw flinching during or immediately after application of a filament. On experimentation days (12 days after SNL), rats were acclimatized in a box with a wire mesh floor for at least 20 min before being randomly allocated to one of the experimental groups. All experiments were carried out by an observer who was blind to the treatments. To investigate the effects of 12 (30 or 100 μg) and 17 (10 or 30 μg), it was supplied intrathecally following post-injury baseline PWT determination in rats with either spinal nerve-ligated neuropathic pain. Withdrawal thresholds were determined at 15, 30, 60, 90, 120, 150, and 180 min after intrathecal administration.
All data are expressed as means ± SEM. The time-response data are presented as the withdrawal threshold in grams. The dose-response data are presented as a percentage of the maximum possible effect (%MPE): %MPE = ((post-drug threshold−post-injury baseline threshold)/(cutoff threshold−post-injury baseline threshold)) × 100. Time and dose-response data were analyzed by a one-way and two-way repeated measures analysis of variance (ANOVA), with a Bonferroni’s post hoc test. A p-value < 0.05 was considered statistically significant.

A further data set has as its system rats. Put plainly: Behavioral responses: motor functions (righting, placing/stepping reflexes), pinna and corneal reflexes after intrathecal administration. The class given is in vivo, rat. To be noted: highest doses, examined for 3 h. The procedure: Motor functions were assessed by examining righting and placing/stepping reflexes. […] The […] was evoked by the rat drawing the dorsum of either hind paw across the edge of a table. Normally, rats attempt to place a paw into a position that enables walking. The pinna and corneal reflexes were evoked by stimulating the ear canal or cornea, respectively, with a string. Normally, rats spontaneously shake their heads or blink. Normality of behavior was classified as present or absent. To evaluate the behavioral changes induced by compounds 12 and 17, additional rats were examined for 3 h after intrathecal administration of the highest doses of the agents used. The motor function and pinna and corneal reflexes were normal after intrathecal administration of compounds 12 and 17 at the highest doses. Overt abnormal behavioral changes were not observed.

Data set [7] is described as follows: In vitro metabolic stability, human. The class given is in vitro ADME. Particulars: for in vitro metabolic stability: S9 microsomal fraction, 30 min, Table S1; for recovery at 30 min, 1 µM: human, pH 7.4, % remaining after 30 min incubation with S9 microsomal fraction. On the procedure: (§1) Experimental details for Biology […]
(§2) Microsomal stability. The metabolic stability of compounds was evaluated in rat liver microsomes (RLM). Microsomes (0.5 mg/ml) and test compound (1 µM) in 100 mM potassium phosphate buffer (pH 7.4) were preincubated with shaking (100 rpm) for 5 min at 37 °C. The metabolic reaction was initiated by the addition of an NADPH generating system (60 mM potassium phosphate buffer pH 7.4, 1.3 mM NADP, 3.3 mM glucose-6-phosphate, 0.3 µL glucose-6-phosphate dehydrogenase (0.4 U/mL), and 3.3 mM magnesium chloride) and incubated at 37 °C. Aliquots of 100 µL were withdrawn at 0, 10, 20, 30 and 60 min, and 2 volumes of ice-cold acetonitrile (ACN) were added to terminate the reaction. After mixing by vortex and centrifugation (14000 rpm) for 15 min at 4 °C, the supernatant was transferred to liquid chromatography vials and analyzed by an LC-MS/MS system.
(§3) Table S1. In vitro metabolic stability of selected compounds.
(§4) Compounds Human Rat Mouse […]
(§5) a% remaining after 30 min incubation with S9 microsomal fraction.

Data set [8] in a line: In vitro metabolic stability, rat. The class given is in vitro ADME. Particulars: pH 7.4, % remaining after 30 min incubation with S9 microsomal fraction. The procedure:
as §1, §2, §3, §4, §5

Data set [9] in a line: In vitro metabolic stability, mouse. The class given is in vitro ADME. To be noted: pH 7.4, % remaining after 30 min incubation with S9 microsomal fraction. On the procedure:
as §1, §2, §3, §4, §5

Another data set relates to hMOR. More on the design: method as in earlier work. To be noted: ref 21 (Gassaway et al.); cited from earlier work.
For another data set, the system named is mMOR. More on the design: method as in earlier work. Particulars: ref 21 (Gassaway et al.); cited from earlier work.

Sequence of human serotonin transporter (hSERT) (P31645 whole entry): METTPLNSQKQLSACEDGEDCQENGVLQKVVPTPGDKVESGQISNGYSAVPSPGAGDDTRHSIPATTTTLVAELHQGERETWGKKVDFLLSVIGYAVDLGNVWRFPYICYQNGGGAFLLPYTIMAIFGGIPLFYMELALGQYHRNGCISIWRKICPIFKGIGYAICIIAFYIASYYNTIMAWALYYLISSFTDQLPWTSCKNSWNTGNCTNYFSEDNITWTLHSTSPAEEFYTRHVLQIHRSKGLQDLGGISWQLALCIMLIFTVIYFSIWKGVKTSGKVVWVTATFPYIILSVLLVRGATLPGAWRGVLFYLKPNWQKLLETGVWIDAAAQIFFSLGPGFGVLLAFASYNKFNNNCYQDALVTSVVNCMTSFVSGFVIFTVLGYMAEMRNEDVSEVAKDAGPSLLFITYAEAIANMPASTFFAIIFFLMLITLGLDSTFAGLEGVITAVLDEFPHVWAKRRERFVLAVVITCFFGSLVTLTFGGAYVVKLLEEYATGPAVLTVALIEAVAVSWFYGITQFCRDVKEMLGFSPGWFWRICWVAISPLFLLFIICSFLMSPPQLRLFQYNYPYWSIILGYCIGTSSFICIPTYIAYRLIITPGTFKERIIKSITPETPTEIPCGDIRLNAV
T3 sequence (P35372 whole entry): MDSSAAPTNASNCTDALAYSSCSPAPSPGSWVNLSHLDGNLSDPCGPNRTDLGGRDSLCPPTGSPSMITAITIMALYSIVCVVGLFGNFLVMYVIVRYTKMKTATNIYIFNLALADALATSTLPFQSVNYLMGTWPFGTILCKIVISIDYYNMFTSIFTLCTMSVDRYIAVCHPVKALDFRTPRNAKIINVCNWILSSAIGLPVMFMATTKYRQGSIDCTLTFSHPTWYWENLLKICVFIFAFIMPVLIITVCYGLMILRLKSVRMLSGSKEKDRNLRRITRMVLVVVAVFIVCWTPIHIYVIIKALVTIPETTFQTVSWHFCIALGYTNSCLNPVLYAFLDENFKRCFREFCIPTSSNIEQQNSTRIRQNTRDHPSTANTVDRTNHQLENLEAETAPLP
T2 sequence (P35372 whole entry): as above
T1 sequence (P41145 whole entry): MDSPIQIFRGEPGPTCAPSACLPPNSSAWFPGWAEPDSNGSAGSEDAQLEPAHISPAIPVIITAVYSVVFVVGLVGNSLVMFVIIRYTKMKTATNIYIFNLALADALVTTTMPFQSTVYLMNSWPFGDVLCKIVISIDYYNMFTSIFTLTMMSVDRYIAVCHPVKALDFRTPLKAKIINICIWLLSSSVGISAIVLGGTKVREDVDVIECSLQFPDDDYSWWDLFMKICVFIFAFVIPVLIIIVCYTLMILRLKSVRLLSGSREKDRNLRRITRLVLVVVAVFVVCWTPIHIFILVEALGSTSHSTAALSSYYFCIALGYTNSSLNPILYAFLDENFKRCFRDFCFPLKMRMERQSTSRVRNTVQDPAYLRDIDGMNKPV
Sequence of human norepinephrine transporter (hNET) (P23975 whole entry): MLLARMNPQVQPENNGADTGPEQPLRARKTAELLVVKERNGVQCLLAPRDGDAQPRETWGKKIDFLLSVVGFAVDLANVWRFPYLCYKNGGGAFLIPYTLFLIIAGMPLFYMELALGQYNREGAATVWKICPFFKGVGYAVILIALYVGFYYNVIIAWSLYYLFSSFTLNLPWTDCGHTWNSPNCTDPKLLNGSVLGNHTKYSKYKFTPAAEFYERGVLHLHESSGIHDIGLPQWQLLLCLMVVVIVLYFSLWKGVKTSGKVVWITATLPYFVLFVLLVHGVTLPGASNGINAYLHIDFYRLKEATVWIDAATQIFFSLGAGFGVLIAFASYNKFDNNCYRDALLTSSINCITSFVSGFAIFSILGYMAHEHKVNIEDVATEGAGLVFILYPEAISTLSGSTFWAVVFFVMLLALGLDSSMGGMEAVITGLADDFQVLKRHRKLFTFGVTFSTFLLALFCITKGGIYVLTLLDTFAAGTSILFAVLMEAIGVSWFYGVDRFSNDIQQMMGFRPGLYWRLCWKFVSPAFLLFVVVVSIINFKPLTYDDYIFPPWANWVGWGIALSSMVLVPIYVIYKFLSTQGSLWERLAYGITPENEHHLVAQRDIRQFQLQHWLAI
Sequence of human dopamine transporter (hDAT) (Q01959 whole entry): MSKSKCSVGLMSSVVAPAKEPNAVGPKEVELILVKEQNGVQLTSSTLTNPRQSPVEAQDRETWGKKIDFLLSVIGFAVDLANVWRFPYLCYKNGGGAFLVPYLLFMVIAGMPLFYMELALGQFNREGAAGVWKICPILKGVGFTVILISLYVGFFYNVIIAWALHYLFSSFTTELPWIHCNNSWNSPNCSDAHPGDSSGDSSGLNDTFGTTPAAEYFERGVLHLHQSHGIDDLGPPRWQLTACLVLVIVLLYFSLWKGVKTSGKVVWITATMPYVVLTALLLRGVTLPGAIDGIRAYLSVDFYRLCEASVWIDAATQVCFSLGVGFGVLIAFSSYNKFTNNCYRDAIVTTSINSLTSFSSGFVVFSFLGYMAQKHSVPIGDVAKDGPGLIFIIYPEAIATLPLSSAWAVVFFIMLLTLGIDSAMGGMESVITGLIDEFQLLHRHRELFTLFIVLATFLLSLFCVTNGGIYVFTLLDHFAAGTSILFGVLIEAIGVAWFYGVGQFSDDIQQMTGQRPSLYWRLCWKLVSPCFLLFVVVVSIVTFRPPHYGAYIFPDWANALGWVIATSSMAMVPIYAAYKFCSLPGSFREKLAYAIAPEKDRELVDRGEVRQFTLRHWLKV

Consider `CN1c2ccccc2C(NCCCCCCC(=O)NCCc2c[nH]c3ccc(O)cc23)c2ccc(Cl)cc2S1(=O)=O` (centres unmarked) [Compound 12, 7-((3-chloro-6-methyl-5,5-dioxido-6,11-dihydrodibenzo[c,f][1,2]thiazepin-11-yl)amino)-N-(2-(5-hydroxy-1H-indol-3-yl)ethyl)heptanamide], for which the melting point fell in the range of 92 to 95 °C. Moreover, the 50% inhibitory concentration (IC50) in [1] was 9.66 ± 1 µM. The 50% inhibitory concentration (IC50) in [2] came to 258 ± 57 nM. Also, the inhibition at 10 µM in [3] (10 μM, HEK-hNET, mean ± SEM, n = 3–6, read-out: % Inhibition at 10 μM hNET) is 30.1 ± 0.87%. For the same compound, in [4], the “agonistic activity at the κ-opioid receptor” value was “did not show agonistic activities” and the activation at 10 µM is less than 10%. Also, the concentration giving a half-maximal response (EC50) in data set [5] came out at 1200 ± 244 nM. For the same compound, in data set [5] (HEK-hMOR calcium mobilization), the “agonistic activity at the μ-opioid receptor” value was “partial agonisms”. This compound displayed an EC50 on hOPRM1 receptor of 134 ± 12 nM. For the same compound, in data set [6], the “maximum possible effect (MPE)” value was found to be 73% and the “effect on paw withdrawal threshold (PWT) / allodynia” value was “dose-dependent increase in the withdrawal threshold; also recorded: increased the paw withdrawal threshold (PWT) compared to the vehicle”. Further, in the data set with rats, the “motor function and pinna and corneal reflexes” value is given as “normal”. In data set [7], the “in vitro metabolic stability” value is listed as “extremely low” and the recovery at 30 min, 1 µM amounted to 5%. The recovery at 30 min, 1 µM in [8] worked out at 6%. Besides, in data set [9], the recovery at 30 min, 1 µM was 5%.
Take `CN1c2ccccc2C(NCCCCCCCNCCc2c[nH]c3ccc(O)cc23)c2ccc(Cl)cc2S1(=O)=O` (centres unmarked) [Compound 17, 3-chloro-11-((7-((2-(5-hydroxy-1H-indol-3-yl)ethyl)amino)heptyl)amino)-6-methyl-6,11-dihydrodibenzo[c,f][1,2]thiazepine 5,5-dioxide]: the 50% inhibitory concentration (IC50) in data set [1] was 2.01 ± 0.65 µM; in data set [2] (HEK-hSERT, neurotransmitter uptake, mean ± SEM, n = 3–6, read-out: IC50 hSERT), 70 ± 9 nM; in [3] it was 154 ± 7 nM. In addition, the “fold higher hSERT inhibitory activity than compound 12” value in [2] (IC50 ratio vs compound 12) is reported as 3 fold. Moreover, the “agonistic activity at the κ-opioid receptor” value in data set [4] was “no influence; also recorded: did not show agonistic activities”. Also, the activation at 10 µM in data set [4] was less than 10%. The 50% effective concentration (EC50) in [5] turned out to be 384 ± 25 nM; on hOPRM1 receptor it was 1560 ± 195 nM. Also, the “fold increase in Ca2+ efflux in HEK-hMOR” value in data set [5] (HEK-hMOR) is recorded as 5.9 fold. In [5] (HEK-hMOR calcium mobilization), the “agonistic activity at the μ-opioid receptor” value is listed as “partial agonisms”. Besides, the “β-arrestin recruitment” value at hOPRM1 receptor (CHO-K1 OPRM1) is listed as “lower levels of β-arrestin recruitment than compound 12”. The “maximum possible effect (MPE)” value in [6] was found to be 83%. In data set [6], the “effect on paw withdrawal threshold (PWT) / allodynia” value is “increased mechanical withdrawal threshold compared to vehicle; also recorded: significantly reduced allodynia; also recorded: increased the PWT; also recorded: showed antiallodynic effects at the spinal level”. For the same compound, the “motor function and pinna and corneal reflexes” value in the data set on rats is “normal”. In addition, the “in vitro metabolic stability” value in data set [7] is “extremely low”. The recovery at 30 min, 1 µM in [7] is 0%; in data set [8], 1%; in data set [9], 1%.
Regarding `CN1c2ccccc2C(NCCCCCCC(=O)O)c2ccc(Cl)cc2S1(=O)=O` (centres unmarked) [Tianeptine, reference compound], the “agonistic activity at the κ-opioid receptor” value in [4] is recorded as “did not show appreciable biological activities”. Also, the activation at 10 µM in data set [4] is less than 10%. In addition, the “% Stimulation at 10 μM, OPRM1 Agonism against DAMGO (3.9 μM)” value in data set [5] (10 μM, HEK-hMOR calcium mobilization, normalized to Emax of DAMGO at 3.9 μM) is less than 10% ^b. Also, the “agonistic activity at the μ-opioid receptor” value in data set [5] (HEK-hMOR calcium mobilization) was “did not show appreciable biological activities”. Moreover, the EC50 was greater than 5000 nM on hOPRM1 receptor, 194 nM in the data set with hMOR and 641 nM in the data set on mMOR.

In general, IC50 refers to the concentration that inhibits the measured activity by half. The term inhibition denotes the percentage by which the read-out fell short of the control. A word on the EC50: it is the midpoint of the concentration-response curve. In general, melting point refers to the temperature, or range, at which the solid turns liquid.
